# Source: the supplement of paper PMC11208160
# Test: recombinant UMI read abundance after kanamycin selection (control-corrected) (log10(CPM+1)); higher = more efficient recombination; extreme values may be limits of the assay; sequences stand for … in AGTGCAGAGAAAATCGGCCAGTTTTCTCTGCCTGCAGTCCGCATGCCGTGGGACCCCTTGGGTTCTAACCTGTTGCCTAGATTTATGCAGCGGACTGCCTTTCTCCCAAAGTGATAAACCGG…AGGTTGGTTTCACT; site = the 11-nt donor
# Method in brief: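 After plating on IPTG (0.07 mM) plus kanamycin, or unselected, in two replicates, recombinant UMIs were PCR-amplified across the donor–target junction and sequenced. The cells were Escherichia coli co-electroporated with a UMI-tagged donor and donor-binding-loop pair library and a target plasmid with a fixed target and T7-inducible IS621 bridge recombinase. Values are log10(CPM+1), with CPM averaged over replicates and scaled by control-derived factors.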
row,Sequence,recombinant UMI read abundance (log10)
1,GAATAGCCATGGACCGGTTTTCCCGGTAATCCGTATTTGCA (site GAATTGCCTTG),0
2,GAATGAGCATGGACCGGTTTTCCCGGTAATCCGTATTTGGG (site AAATGAGCTCC),0.0126
3,GAATGAGCATGGACCGGTTTTCCCGGTAATCCGTATTTGGG (site CAATGAGCTCC),0.0211
4,GAATGAGCATGGACCGGTTTTCCCGGTAATCCGTATTTGGG (site GAATGAGCTCC),0.261
5,GAATGAGCATGGACCGGTTTTCCCGGTAATCCGTATTTGGG (site TAATGAGCTCC),0.317
6,GAATGGCCATGGACCGGTTTTCCCGGTAATCCGTATTTGCC (site GAATGGCCTAG),0
7,GAATGGCCATGGACCGGTTTTCCCGGTAATCCGTATTTGCC (site GAATGGCCTCG),0.0106
8,GAATGGCCATGGACCGGTTTTCCCGGTAATCCGTATTTGCC (site GAATGGCCTGG),0
9,GAATGGCCATGGACCGGTTTTCCCGGTAATCCGTATTTGCC (site GAATGGCCTTG),0
10,GAATGGCCATGGACCGGTTTTCCCGGTAATCCGTATTTGCG (site GAATGGCCTAG),0
11,GAATGGCCATGGACCGGTTTTCCCGGTAATCCGTATTTGCG (site GAATGGCCTCG),0.0153
12,GAATGGCCATGGACCGGTTTTCCCGGTAATCCGTATTTGCG (site GAATGGCCTGG),0
13,GAATGGCCATGGACCGGTTTTCCCGGTAATCCGTATTTGCG (site GAATGGCCTTG),0
14,GAATGGCCATGGACCGGTTTTCCCGGTAATCCGTATTTGGA (site GAATGGCCTTA),0
15,GAATGGCCATGGACCGGTTTTCCCGGTAATCCGTATTTGGA (site GAATGGCCTTC),0.00798
16,GAATGGCCATGGACCGGTTTTCCCGGTAATCCGTATTTGGA (site GAATGGCCTTG),0
17,GAATGGCCATGGACCGGTTTTCCCGGTAATCCGTATTTGGA (site GAATGGCCTTT),0.0129
18,GAATGGCCATGGACCGGTTTTCCCGGTAATCCGTATTTGTA (site GAATGGCCTTA),0.142
19,GAATGGCCATGGACCGGTTTTCCCGGTAATCCGTATTTGTA (site GAATGGCCTTC),0.0097
20,GAATGGCCATGGACCGGTTTTCCCGGTAATCCGTATTTGTA (site GAATGGCCTTG),0.00609
21,GAATGGCCATGGACCGGTTTTCCCGGTAATCCGTATTTGTA (site GAATGGCCTTT),0.0207
22,GACAAACCATGGACCGGTTTTCCCGGTAATCCGTATTTGCT (site GACAAACCTAA),0.00711
23,GACAAACCATGGACCGGTTTTCCCGGTAATCCGTATTTGCT (site GACAAACCTAC),0
24,GACAAACCATGGACCGGTTTTCCCGGTAATCCGTATTTGCT (site GACAAACCTAG),0
25,GACAAACCATGGACCGGTTTTCCCGGTAATCCGTATTTGCT (site GACAAACCTAT),0

row,Sequence,recombinant UMI read abundance (log10)
1,GACAAACCATGGACCGGTTTTCCCGGTAATCCGTATTTGGA (site GACAAACCTAC),0.0269
2,GACAAACCATGGACCGGTTTTCCCGGTAATCCGTATTTGGA (site GACAAACCTCC),0
3,GACAAACCATGGACCGGTTTTCCCGGTAATCCGTATTTGGA (site GACAAACCTGC),0
4,GACAAACCATGGACCGGTTTTCCCGGTAATCCGTATTTGGA (site GACAAACCTTC),0
5,GACAAACCATGGACCGGTTTTCCCGGTAATCCGTATTTGTT (site GACAAACCTAA),0
6,GACAAACCATGGACCGGTTTTCCCGGTAATCCGTATTTGTT (site GACAAACCTAC),0
7,GACAAACCATGGACCGGTTTTCCCGGTAATCCGTATTTGTT (site GACAAACCTAG),0
8,GACAAACCATGGACCGGTTTTCCCGGTAATCCGTATTTGTT (site GACAAACCTAT),0
9,GACACACCATGGACCGGTTTTCCCGGTAATCCGTATTTGGT (site GACAAACCTAC),0
10,GACACACCATGGACCGGTTTTCCCGGTAATCCGTATTTGGT (site GACACACCTAC),0.00264
11,GACACACCATGGACCGGTTTTCCCGGTAATCCGTATTTGGT (site GACAGACCTAC),0.00253
12,GACACACCATGGACCGGTTTTCCCGGTAATCCGTATTTGGT (site GACATACCTAC),0.00315
13,GACCACCCATGGACCGGTTTTCCCGGTAATCCGTATTTGTT (site GACCACCCTAA),0.0158
14,GACCACCCATGGACCGGTTTTCCCGGTAATCCGTATTTGTT (site GCCCACCCTAA),0.0164
15,GACCACCCATGGACCGGTTTTCCCGGTAATCCGTATTTGTT (site GGCCACCCTAA),0.00672
16,GACCACCCATGGACCGGTTTTCCCGGTAATCCGTATTTGTT (site GTCCACCCTAA),0.0482
17,GACCCATCATGGACCGGTTTTCCCGGTAATCCGTATTTGCC (site GACCCATCTGG),1.64
18,GACCCGACATGGACCGGTTTTCCCGGTAATCCGTATTTGGT (site GACCCGACTAC),0.319
19,GACCCTACATGGACCGGTTTTCCCGGTAATCCGTATTTGAA (site GACCCTACTTT),0.324
20,GACCGACCATGGACCGGTTTTCCCGGTAATCCGTATTTGCG (site GACCGACCTCG),0.00858
21,GACCGTCCATGGACCGGTTTTCCCGGTAATCCGTATTTGAC (site GACCGTCCTGT),0
22,GACCTATCATGGACCGGTTTTCCCGGTAATCCGTATTTGGA (site GACCTATCTTC),0.981
23,GACCTTCCATGGACCGGTTTTCCCGGTAATCCGTATTTGGT (site GACCTTCCTAC),0.0209
24,GACGCCGCATGGACCGGTTTTCCCGGTAATCCGTATTTGGT (site GACGCCGCTAC),0.736
25,GACGTAACATGGACCGGTTTTCCCGGTAATCCGTATTTGGC (site GACGTAACTGC),1.72

row,Sequence,recombinant UMI read abundance (log10)
1,GACTAGCCATGGACCGGTTTTCCCGGTAATCCGTATTTGAA (site GACTAGCCTTT),0.0158
2,GACTCATCATGGACCGGTTTTCCCGGTAATCCGTATTTGCC (site GACTCATCTGG),2.65
3,GACTTGGCATGGACCGGTTTTCCCGGTAATCCGTATTTGAA (site GACTTGGCTTT),0.93
4,GAGAAGCCATGGACCGGTTTTCCCGGTAATCCGTATTTGGG (site GAGAAGCCTCC),0.0155
5,GAGAAGCCATGGACCGGTTTTCCCGGTAATCCGTATTTGGG (site GCGAAGCCTCC),0.0122
6,GAGAAGCCATGGACCGGTTTTCCCGGTAATCCGTATTTGGG (site GGGAAGCCTCC),0
7,GAGAAGCCATGGACCGGTTTTCCCGGTAATCCGTATTTGGG (site GTGAAGCCTCC),0.0251
8,GAGAATCCATGGACCGGTTTTCCCGGTAATCCGTATTTGTT (site CGGAATCCTAA),0
9,GAGAATCCATGGACCGGTTTTCCCGGTAATCCGTATTTGTT (site GAGAATCCTAA),0
10,GAGACGTCATGGACCGGTTTTCCCGGTAATCCGTATTTGCC (site GAGACGTCTGG),2.04
11,GAGCACGCATGGACCGGTTTTCCCGGTAATCCGTATTTGGG (site AAGCACGCTCC),0.0191
12,GAGCACGCATGGACCGGTTTTCCCGGTAATCCGTATTTGGG (site CAGCACGCTCC),0.0292
13,GAGCACGCATGGACCGGTTTTCCCGGTAATCCGTATTTGGG (site GAGCACGCTCC),0.468
14,GAGCACGCATGGACCGGTTTTCCCGGTAATCCGTATTTGGG (site TAGCACGCTCC),0.517
15,GAGCACTCATGGACCGGTTTTCCCGGTAATCCGTATTTGCG (site GAGCACTCTCG),3.08
16,GAGCCCACATGGACCGGTTTTCCCGGTAATCCGTATTTGAA (site GAGCCCACTTT),1.73
17,GAGCCCTCATGGACCGGTTTTCCCGGTAATCCGTATTTGTC (site GAGCCCTCTGA),3.73
18,GAGCCGACATGGACCGGTTTTCCCGGTAATCCGTATTTGGC (site GAGCCGACTGC),0
19,GAGCGCACATGGACCGGTTTTCCCGGTAATCCGTATTTGAT (site GAGCACACTAT),1.07
20,GAGCGCACATGGACCGGTTTTCCCGGTAATCCGTATTTGAT (site GAGCCCACTAT),0.285
21,GAGCGCACATGGACCGGTTTTCCCGGTAATCCGTATTTGAT (site GAGCGCACTAT),1.73
22,GAGCGCACATGGACCGGTTTTCCCGGTAATCCGTATTTGAT (site GAGCTCACTAT),0.111
23,GAGCGTCCATGGACCGGTTTTCCCGGTAATCCGTATTTGGG (site GAGCGTCCTCC),0.0151
24,GAGCGTTCATGGACCGGTTTTCCCGGTAATCCGTATTTGAA (site GAGCGTTCTTT),2.83
25,GAGCTCACATGGACCGGTTTTCCCGGTAATCCGTATTTGAT (site AAGCTCACTAT),1.48
